In general, IC50 refers to the concentration at which inhibition is half-maximal.

The text below walks through data of patent publication US20050250945A1, “Triazine compounds as inhibitors of bacterial type III protein secretion systems” (priority 2004, published 2005).

SMILES strings stand for the structures.

Assay type in all cases: cell-based
Test [1] relates to SPI1 type III protein secretion system (SopE‘-’Bla secretion). The test is described as follows: Primary assay: Type III protein secretion of the chimeric SopE‘-’Bla polypeptide (nitrocefin hydrolysis). The conditions noted are these: Salmonella enterica, read-out: SopE IC50(uM). From the text: Primary assay: Type III protein secretion of the chimeric SopE‘-’Bla polypeptide by Salmonella enterica. This procedure is a cell-based assay that measures the type III-dependent secretion by Salmonella enterica of a plasmid-encoded chimeric polypeptide whose synthesis can be regulated, and which is endowed with an enzymatic activity that can be monitored colorimetrically by hydrolysis of a substrate that is unable to penetrate into the bacterial cytoplasm within the time constraints of the reaction. Thus, the colorimetric reaction is not influenced by SopE‘-’Bla polypeptide in the bacterial cytoplasm. Instead, it effectively measures the amount of polypeptide that has been secreted from the S. enterica cytoplasm to the extracellular medium via type III system protein secretion.
The SopE‘-’Bla recombinant polypeptide consists of two functionally distinct domains spliced together. The N-terminus domain is encoded by a polynucleotide region specifying the signal for type III secretion of the SopE polypeptide of S. enterica, an effector of the SPI1 type III protein secretion system. The C-terminus domain of SopE‘-’Bla consists of a 263 amino acid peptide sequence that corresponds to the TEM-1 β-lactamase expressed by plasmid pBR322 but without its N-terminal signal sequence. The TEM-1 β-lactamase part of the SopE‘-’Bla chimeric polypeptide is used as a reporter enzyme. It is capable of hydrolyzing nitrocefin resulting in a product whose accumulation can be monitored by colorimetric detection. The secretion of the SopE‘—’Bla chimeric polypeptide from the cytoplasm to the extracellular medium is dependent on type III protein secretion.
For this procedure, cells grown under conditions known to favor a functional SPI1 secretion system are induced for expression of the SopE‘-’Bla protein and grown either in the presence or in the absence of putative inhibitors for determined time. Nitrocefin is then added to the various cultures and its hydrolysis are used for quantitation. An inhibitor of Type III protein secretion is generally a compound that reduces the signal of the enzymatic reaction by decreasing the amount of SopE‘-’Bla secreted into the extracellular medium.

The subject of test [2] is SPI1 type III protein secretion system (SipB secretion). Briefly: Secondary assay: Type III-dependent protein secretion of the SipB polypeptide (immunoblot). The conditions noted are these: Salmonella enterica, read-out: SipB IC50(uM). As for the experimental part:
Secondary assay: Type III-dependent protein secretion of the SipB polypeptide by S. enterica. The SipB protein of S. enterica is another effector of the SPI1 type III protein secretion system from S. enterica. In this cell-based procedure, the Type III-dependent secretion of SipB from the bacterial cytoplasm to the extracellular medium was measured through its reactivity with a cognate mouse monoclonal.
Salmonella enterica cells growing either in the presence or in the absence of inhibitors are induced for the production of SipB. Following an established period of growth the cells are sedimented and the amount of SipB present in the supernatant is quantified with a scanning imager following application of immunoblot techniques. Detection may employ an anti-SipB mouse monoclonal antibody (e.g., obtained from Jorge Galan, SUNY at Stony Brook, N.Y.) followed by treatment with commercially available sheep anti-mouse polyclonal antibody conjugated with horseradish peroxidase. Thereafter the membrane is treated with a peroxidase chemiluminescent substrate and exposed to film for an appropriate exposure time. Inhibition may be measured relative to untreated controls.

In test [3] the test system is type III protein secretion system of P. aeruginosa PA103 (ExoU secretion). The test is described as follows: Tertiary assay: Type III-dependent secretion of ExoU by P. aeruginosa PA103 (SDS-PAGE band quantitation). The conditions noted are these: Pseudomonas aeruginosa; P. aeruginosa PA103, ExoU secreted into extracellular medium. An excerpt: Tertiary assay: Inhibition of Type III protein secretion of effectors from a Pseudomonas aeruginosa system. Type III protein secretion is used by P. aeruginosa to secrete several essential virulence determinants. One effector of the type III protein secretion system of P. aeruginosa PA103 is the virulence determinants ExoU.
The amount of Type III-dependent secretion of ExoU by P. aeruginosa PA103 can be determined in a cell-based assay by quantification of the 73.9 kDa ExoU protein secreted into the extracellular medium. Such quantitation can be achieved by growing strain PA103 in a deferrated medium in the presence of nitrilotriacetic acid (an inducer of Type III protein secretion in P. aeruginosa) and either in the presence or absence of putative inhibitors. After a prolonged growth period, the cells are sedimented and the supernatants concentrated by ammonium sulfate precipitation. The proteins in the resuspended pellets are separated by electrophoresis on SDS-polyacrylamide gels. After staining gels with Colloidal Blue™, the 73.9 kDa ExoU band is quantitated by scanning through an imager. The effects of inhibitors on the intensity of the ExoU band may be measured relative to that of untreated controls.

Regarding `O=C(O)[C@H](CS(=O)(=O)Cc1ccccc1)Nc1nc(-c2ccc(F)cc2)nc(N2CCc3ccccc3C2)n1` [Compound 11, (R)-2-[4-(3,4-Dihydro-1H-isoquinolin-2-yl)-6-(4-fluorophenyl)[1,3,5]triazin-2yl-amino]-3-phenyl-methanesulfonyl propionic acid], the 50% inhibitory concentration (IC50) in test [1] is 86 µM; in test [2] it was more than 100 µM.
Consider `O=C(O)[C@H](CSCc1ccccc1)Nc1nc(Nc2ccc(C(F)(F)F)cc2)nc(-c2ccc(OC(F)(F)F)cc2)n1` [Compound 19, (R)-3-Benzylsulfanyl-2-[4-(4-trifluoromethoxyphenyl)-6-(4-trifluoromethyl-phenylamino)[1,3,5]triazin-2-yl-amino]propionic acid], for which the half-inhibitory concentration (IC50) in test [1] was determined as 3.2 µM.
The same measure, in the same setting: with `O=C(O)[C@H](CSCc1ccccc1)Nc1nc(Nc2ccc(C(F)(F)F)cc2)nc(-c2ccc(O)cc2)n1` [Compound 31, (R)-3-Benzylsulfanyl-2-[4-(4-hydroxyphenyl)-6-(4-trifluoromethylphenylamino)-[1,3,5]triazin-2-yl-amino]propionic acid] the figure was 9.1 µM.
On to `O=C(O)[C@H](CSCc1ccccc1)Nc1nc(Nc2ccc(C(F)(F)F)cc2)nc(-c2cccc3ccccc23)n1` [Compound 18, (R)-3-Benzylsulfanyl-2-[4-naphthalen-1-yl-6-(4-trifluoromethylphenylamino)-[1,3,5]triazin-2-yl-amino]propionic acid], for which the IC50 in test [1] worked out at 2.5 µM.
On to `O=C(O)[C@H](CSCc1ccccc1)Nc1nc(Nc2ccc(C(F)(F)F)cc2)nc(-c2cccc(F)c2)n1` [Compound 23, (R)-3-Benzylsulfanyl-2-[4-(3-fluorophenyl)-6-(4-trifluoromethylphenylamino)-[1,3,5]triazin-2-yl-amino]propionic acid], for which the IC50 in test [1] was 4.2 µM.
With `O=C(O)[C@H](CSCc1ccccc1)Nc1nc(Nc2ccc(C(F)(F)F)cc2)nc(-c2ccccc2Oc2ccccc2)n1` [Compound 17, (R)-3-Benzylsulfanyl-2-[4-(2-phenoxyphenyl)-6-(4-trifluoromethylphenylamino)[1,3,5]triazin-2-yl-amino]propionic acid], in test [1], the IC50 was 2.5 µM.
Consider `CC(C)Oc1ccc(-c2nc(Nc3ccc(C(F)(F)F)cc3)nc(N[C@@H](CSCc3ccccc3)C(=O)O)n2)cc1` [Compound 22, (R)-3-Benzylsulfanyl-2-[4-(4-isopropoxyphenyl)-6-(4-trifluoromethyl-phenylamino)[1,3,5]triazin-2-yl-amino]propionic acid], for which, in test [1], the IC50 amounted to 4.1 µM.
Still for that read-out and setting: the same measure for `O=C(O)[C@H](CSCc1ccccc1)Nc1nc(Nc2ccc(C(F)(F)F)cc2)nc(-c2cccc(C(F)(F)F)c2)n1` [Compound 21, (R)-3-Benzylsulfanyl-2-[4-(3-trifluoromethylphenyl)-6-(4-trifluoromethyl-phenylamino)[1,3,5]triazin-2-yl-amino]propionic acid]: 4.1 µM.
Regarding `O=C(O)[C@H](CSCc1ccccc1)Nc1nc(Nc2ccc(C(F)(F)F)cc2)nc(-c2ccc3ccccc3c2)n1` [Compound 20, (R)-3-Benzylsulfanyl-2-[4-naphthalen-2-yl-6-(4-trifluoromethylphenylamino)-[1,3,5]triazin-2-yl-amino]propionic acid], the IC50 was 3.3 µM in test [1] and more than 100 µM in test [3].
With `O=C(O)[C@H](CSCc1ccccc1)Nc1nc(Nc2ccc(C(F)(F)F)cc2)nc(-c2ccc(C(F)(F)F)cc2)n1` [Compound 16, (R)-3-Benzylsulfanyl-2-[4-(4-trifluoromethylphenyl)-6-(4-trifluoromethyl-phenylamino)[1,3,5]triazin-2-yl-amino]propionic acid], the IC50 in test [1] was 2 µM.
The same measure, in the same setting: the same measure for `O=C(O)[C@H](CSCc1ccccc1)Nc1nc(Nc2ccc(C(F)(F)F)cc2)nc(-c2ccc(F)cc2)n1` [Compound 25, (R)-3-Benzylsulfanyl-2-[4-(4-fluorophenyl)-6-(4-trifluoromethylphenylamino)-[1,3,5]triazin-2-yl-amino]propionic acid]: 4.7 µM.
In the case of `O=C(O)[C@H](C[S+]([O-])Cc1ccccc1)Nc1nc(-c2ccc(F)cc2)nc(N2CCc3ccccc3C2)n1` (stereo partly drawn) [Compound 9, (R)-2-[4-(3,4-Dihydro-1H-isoquinolin-2-yl)-6-(4-fluorophenyl)[1,3,5]triazin-2-yl-amino]-3-phenylmethanesulfinylpropionic acid], the concentration for half-maximal inhibition (IC50) in test [1] was 42.6 µM; in test [2], more than 100 µM.
For the molecule `O=C(O)[C@H](CSCc1ccccc1)Nc1nc(Nc2ccc(C(F)(F)F)cc2)nc(-c2ccc(Cl)c(Cl)c2)n1` [Compound 13, (R)-3-Benzylsulfanyl-2-[4-(3,4-dichlorophenyl)-6-(4-trifluoromethylphenylamino)-[1,3,5]triazin-2-yl-amino]propionic acid], in test [1], the IC50 turned out to be 1.25 µM.
Regarding `O=C(O)[C@H](CSCc1ccccc1)Nc1nc(Nc2ccc(C(F)(F)F)cc2)nc(-c2ccc(Oc3ccccc3)cc2)n1` [Compound 12, (R)-3-Benzylsulfanyl-2-[4-(4-phenoxyphenyl)-6-(4-trifluoromethylphenylamino)[1,3,5]triazin-2-yl-amino]propionic acid], the values for the 50% inhibitory concentration (IC50) in test [1] and in test [3] were 1.1 µM and more than 100 µM, respectively.
`O=C(O)[C@H](CSCc1ccccc1)Nc1nc(Nc2ccc(C(F)(F)F)cc2)nc(-c2ccccc2)n1` [Compound 24, (R)-3-Benzylsulfanyl-2-[4-phenyl-6-(4-trifluoromethylphenylamino)[1,3,5]triazin-2-yl-amino]propionic acid]: the half-inhibitory concentration (IC50) in test [1] amounted to 4.4 µM.
Still for that read-out and setting: with `O=C(O)[C@H](CSCc1ccccc1)Nc1nc(Nc2ccc(C(F)(F)F)cc2)nc(-c2ccc(Br)cc2)n1` [Compound 14, (R)-3-Benzylsulfanyl-2-[4-(4-bromophenyl)-6-(4-trifluoromethylphenylamino)-[1,3,5]triazin-2-yl-amino]propionic acid] the figure was 1.7 µM.
As for `O=C(O)[C@H](CSCc1ccccc1)Nc1nc(Nc2ccc(C(F)(F)F)cc2)nc(-c2ccccc2F)n1` [Compound 28, (R)-3-Benzylsulfanyl-2-[4-(2-fluorophenyl)-6-(4-trifluoromethylphenylamino)-[1,3,5]triazin-2-yl-amino]propionic acid], the IC50 in test [1] was 6.7 µM; in test [3], more than 100 µM.
As to `O=C(O)[C@H](CSCc1ccccc1)Nc1nc(Nc2ccc(C(F)(F)F)cc2)nc(-c2ccc(Cl)cc2)n1` [Compound 15, (R)-3-Benzylsulfanyl-2-[4-(4-chlorophenyl)-6-(4-trifluoromethylphenylamino)-[1,3,5]triazin-2-yl-amino]propionic acid], the half-inhibitory concentration (IC50) in test [1] turned out to be 1.9 µM.
Regarding `CN(C)c1ccc(-c2nc(Nc3ccc(C(F)(F)F)cc3)nc(N[C@@H](CSCc3ccccc3)C(=O)O)n2)cc1` [Compound 30, (R)-3-Benzylsulfanyl-2-[4-(4-dimethylaminophenyl)-6-(4-trifluoromethyl-phenylamino)[1,3,5)triazin-2-yl-amino]propionic acid], in test [1], the half-inhibitory concentration (IC50) is 8.5 µM.
On to `O=C(O)[C@H](CSCc1ccccc1)Nc1nc(Nc2ccc(C(F)(F)F)cc2)nc(-c2cc(F)cc(F)c2)n1` [Compound 29, (R)-3-Benzylsulfanyl-2-[4-(3,5-difluorophenyl)-6-(4-trifluoromethylphenylamino)[1,3,5]triazin-2-yl-amino]propionic acid], for which the 50% inhibitory concentration (IC50) in test [1] worked out at 7.4 µM.
